Results from patent US20120040991A1, “3-AZABICYCLO [4.1.0] HEPTANES USED AS OREXIN ANTAGONISTS” (Glaxo Group Limited, priority 2009, published 2012).

Target: T1, human cloned orexin-2 receptor (Homo sapiens, UniProt O43614)
T1 construct: expressed in transfected cells
T1 sequence (O43614 1-444): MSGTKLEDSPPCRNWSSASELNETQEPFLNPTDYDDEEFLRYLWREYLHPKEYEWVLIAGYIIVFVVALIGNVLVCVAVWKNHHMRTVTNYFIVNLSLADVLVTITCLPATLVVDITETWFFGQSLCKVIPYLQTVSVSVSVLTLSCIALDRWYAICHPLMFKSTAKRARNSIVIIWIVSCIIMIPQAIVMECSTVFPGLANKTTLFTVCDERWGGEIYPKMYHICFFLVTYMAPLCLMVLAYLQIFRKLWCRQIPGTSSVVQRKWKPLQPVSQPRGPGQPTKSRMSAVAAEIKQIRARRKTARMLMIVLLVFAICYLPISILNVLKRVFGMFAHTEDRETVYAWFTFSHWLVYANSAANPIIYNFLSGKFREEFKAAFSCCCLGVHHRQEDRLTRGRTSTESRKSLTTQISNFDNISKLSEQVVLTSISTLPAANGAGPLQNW
Assay: Determination of antagonist affinity at human Orexin-2 receptor using FLIPR ([Ca2+]i, CHO cells, hOrexin A at EC80)
Type: cell-based
Details: functional pKi from IC50 by modified Cheng-Prusoff, read-out: fpKi
Excerpt: Determination of Antagonist Affinity at Human Orexin-1 and 2 Receptors Using FLIPR
Adherent Chinese Hamster Ovary (CHO) cells, stably expressing the recombinant human Orexin-1 or human Orexin-2 receptors or Rat Basophilic Leukaemia Cells (RBL) stably expressing recombinant rat Orexin-1 or rat Orexin-2 receptors were maintained in culture in Alpha Minimum Essential Medium (Gibco/Invitrogen, cat. no.; 22571-020), supplemented with 10% decomplemented foetal bovine serum (Life Technologies, cat. no. 10106-078) and 400 μg/mL Geneticin G418 (Calbiochem, cat. no. 345810). Cells were grown as monolayers under 95%:5% air:CO2 at 37° C. […]
Compounds of the invention were tested in a final assay concentration range from 1.66×10^−5M to 1.58×10^−11M. […] This final concentration of hOrexin A was equivalent to the calculated EC80 for hOrexinA agonist potency in this test system. […]
The loaded cells were then incubated for 10 min at 37° C. with test compound. The plates were then placed into a FLIPR™ (Molecular Devices, UK) to monitor cell fluorescence (λex=488 nm, λEM=540 nm) (Sullivan E, Tucker E M, Dale I L. Measurement of [Ca^2]i using the fluometric imaging plate reader (FLIPR). In: Lambert DG (ed.), Calcium Signaling Protocols. New Jersey: Humana Press, 1999, 125-136). A baseline fluorescence reading was taken over a 5 to 10 second period, and then 10 μL of EC80 hOrexinA solution was added. […]

- Ki: > 15.8 µM
SMILES: CCOc1ccc(C)nc1C(=O)N1C[C@@H]2C[C@@H]2C[C@H]1COc1ncc(C(F)(F)F)cn1 [Example E4, (1R,4S,6R)-3-{[3-(ethyloxy)-6-methyl-2-pyridinyl]carbonyl}-4-({[5-(trifluoromethyl)-2-pyrimidinyl]oxy}methyl)-3-azabicyclo[4.1.0]heptane]
